According to article PMC8872362, “Balanced Polymorphism at the Pgm-1 Locus of the Pompeii Worm Alvinella pompejana and Its Variant Adaptability Is Only Governed by Two QE Mutations at Linked Sites” (Genes, 2022):
Read-outs that look alike come from different tables or passages of the source.

System: PGM-1 (recombinant isoform PGM100, E155 E190)
Experiment: G6PD-coupled NADPH assay, Lineweaver-Burk
Assay type: biochemical, Alvinella pompejana
Conditions: 50 mM Tris-HCl pH 7.4, 0.5 M MgCl2 (so in the source), 1.2 mM NADP, 0.1 µM G6PD, G1P 0.2-60 mM, 17 °C
Description: G6PD-coupled NADPH assay, Lineweaver-Burk on PGM-1 (recombinant isoform PGM100, E155 E190)

Compound `O=P(O)(O)O[C@H]1O[C@H](CO)[C@@H](O)[C@H](O)[C@H]1O` [G1P, α-D-glucose 1-phosphate] has a Km (PGM78, natural allele QE, read-out: PGM 78 / 1st Transition) of 0.76 ± 0.07 mM, a Km (PGM90, natural allele EQ, read-out: PGM 90 / 1st Transition) of 6.25 ± 0.35 mM and a Km (read-out: PGM 100 / 1st Transition) of 5.22 ± 0.74 mM.
